Tests used:
[1] = tested on: Staphylococcus Aureus ATCC 25923; test: Colourimetric enzymatic assays in loaded capillaries; assay type: cell-based; settings: overnight at 37° C.; substrate per capillary from Table 4, 500 mg/mL; yellow = positive reaction
Description: (§1) An experiment was conducted to test a combination of sugar fermentation and enzymatic assays for the specific identification of bacteria. Individual 200 micron internal diameter capillaries coated with cross-linked HMW PVA were individually loaded with different reagents to perform a combination of colourimetric sugar fermentation and enzymatic assays as shown in Table 4. [table] […] Staphylococcus Epidermidis ATCC 12228 or Staphylococcus Saprophyticus ATCC 15305 resuspended in Microbatch Staph 12 S suspending media. The strips were incubated overnight at 37° C., and positive/negative identification of assays on individual capillaries was performed by imaging the strips with CCD camera. Enzyme detection: enzymatic substrates are normally colourless. If bacteria have the targeted enzymes, the substrates will be hydrolysed, releasing compounds that will produce a yellow colour indicating a positive reaction.

[2] = tested on: Staphylococcus Saprophyticus ATCC 15305; test: as above; assay type: cell-based; settings: overnight at 37° C.; substrate per capillary from Table 4, 500 mg/mL; yellow = positive reaction
Description: as §1

[3] = tested on: Staphylococcus Epidermidis ATCC 12228; test: as above; assay type: cell-based; settings: overnight at 37° C.; substrate per capillary from Table 4, 500 mg/mL; yellow = positive reaction
Description: as §1

[4] = tested on: Staphylococcus Aureus ATCC 25923; test: Colourimetric fermentation assays in loaded capillaries; assay type: cell-based; settings: overnight at 37° C.; reagent per capillary from Table 4; orange to yellow = fermentation, orange to purple = arginine/urea degradation
Description: (§2) An experiment was conducted to test a combination of sugar fermentation and enzymatic assays for the specific identification of bacteria. Individual 200 micron internal diameter capillaries coated with cross-linked HMW PVA were individually loaded with different reagents to perform a combination of colourimetric sugar fermentation and enzymatic assays as shown in Table 4. [table] […] Staphylococcus Epidermidis ATCC 12228 or Staphylococcus Saprophyticus ATCC 15305 resuspended in Microbatch Staph 12 S suspending media. The strips were incubated overnight at 37° C., and positive/negative identification of assays on individual capillaries was performed by imaging the strips with CCD camera. Sugar Fermentation: if a sugar is fermented, bacteria will produce acid end products and the pH of the medium will drop. The media contains a pH indicator to indicate acid production. A positive test for sugar fermentation consists of a colour change from orange to yellow, indicating a pH change to acidic. Arginine and Urea degradation (detection of Arginine dihydrolase/Urease): when arginine or urea are present, the pH of the medium rises. Accordingly, a positive test for detection of arginine dihydrolase or urease consists of a colour change from orange to purple indicating a pH change to alkaline.

[5] = tested on: Staphylococcus Saprophyticus ATCC 15305; test: as above; assay type: cell-based; settings: overnight at 37° C.; reagent per capillary from Table 4; orange to yellow = fermentation, orange to purple = arginine/urea degradation
Description: as §2

[6] = tested on: Staphylococcus Epidermidis ATCC 12228; test: as above; assay type: cell-based; settings: overnight at 37° C.; reagent per capillary from Table 4; orange to yellow = fermentation, orange to purple = arginine/urea degradation
Description: as §2

[7] = ONPG released into water from strips with different hydrophilic coatings; assay type: physicochemical; settings: loaded 150 g/L, 5 minute
Description: The polymer solutions were then removed from the microcapillary film and the film dried by repeatedly aspirating air through the film strip using a syringe. An FEP microcapillary film coated with cross-linked PVA was used as a control. 8 cm lengths of each polymer coated film were then loaded with ONPG reagent by dipping the film into a 150 g/L ONPG solution. After a 5 minute incubation, the ONPG solution was removed and capillaries were dried using a syringe. The test films were then dipped into water, and the amount of ONPG reagent released into the water measured by a colorimetric endpoint determination using beta-galactosidase enzyme. With the cross-linked PVA coated test strips, 7.8 mg/ml ONPG was released, with gelatine coated test strips 7.2 mg/ml ONPG was released, and with HPMC coated test strips 21.5 mg/ml ONPG was released.

[8] = tested on: Salmonella typhimurium (strain SL3261); test: ONPG loaded test strips dipped into bacterial culture, yellow colour; assay type: cell-based; settings: IPTG-cultured (1 mM, 3 hours); 1 hour incubation at 37 degrees C
Description: (§3) A 10 bore FEP microcapillary film was internally coated with cross-linked PVA. Test microcapillary film was prepared by first loading the capillaries with ONPG by filling the capillaries with a 150 mg·mL^−1 ONPG substrate solution in DMF and incubating for 5 minutes. The substrate solution was then removed and the microcapillary film air dried using a syringe to pass air repeatedly through the capillaries. Seven test strips were cut from this ONPG loaded microcapillary film and dipped into one of 7 different aqueous samples. These comprised water (1); sterile Luria-Bertani lysogeny broth (LB) media (2); a 0.1 U/μl solution of β-galactosidase enzyme (3); an overnight culture of E. coli (ATCC accession number: 25922) suspended in LB (4); an overnight culture of Salmonella typhimurium (strain SL3261) suspended in LB (5); an overnight culture of E. coli suspended in a phosphate buffer saline PBS (6); an overnight culture of S. typhimurium suspended in PBS (7). Negative control test strips consisting of PVA coated cross-linked PVA but not loaded with ONPG were dipped into the same samples (referred hereafter as no substrate). As a comparison, similar assays were also performed in 96 well-plates with ONPG substrate solution (final concentration 1 mg·ml^−1) added to the different samples in a final volume of 100 μl. […]

[9] = tested on: E. coli (ATCC accession number: 25922); test: as above; assay type: cell-based; settings: IPTG-cultured (1 mM, 3 hours); 1 hour incubation at 37 degrees C
Description: as §3

[10] = ONPG released into water from loaded cross-linked PVA coated strips, enzymatic endpoint analysis at 420 nm; assay type: physicochemical; settings: 1 hour, 60 mm strips
Description: Reagent loading and release from the hydrophilic layer was quantified using a fluorescent dye and colorimetric enzyme substrates. For this purpose, an FEP microcapillary film was coated with cross-linked PVA and loaded with two assay reagents, the enzymatic substrate ortho-nitrophenyl-β-galactoside (ONPG) which produces a yellow colour in the presence of beta-galactosidase, and the fluorescent dye fluorescein. Loading was performed by incubation with a water or dimethylformamide (DMF)-based reagent solution for between 5 minutes and 2 h, and subsequent removal of the loading solution using a syringe, followed by air drying of the capillaries by repeated aspiration of air through the film using a syringe. Following loading of the capillaries, the amount of reagent loaded was quantified using three different methods.
The water taken up was then removed using a syringe and ONPG concentration measured by enzymatic endpoint analysis in a microwell plate well through the addition of an excess of beta-galactosidase enzyme and monitoring absorbance at 420 nm using a microwell plate reader. Released concentrations were determined by comparison of absorbance with a calibration curve of known concentrations of ONPG.

[11] = tested on: Salmonella typhimurium (strain SL3261); test: ONPG assay in 96 well-plates (comparison); assay type: cell-based; settings: ONPG 1 mg/ml, overnight incubation
Description: (§4) A 10 bore FEP microcapillary film was internally coated with cross-linked PVA. Test microcapillary film was prepared by first loading the capillaries with ONPG by filling the capillaries with a 150 mg·mL^−1 ONPG substrate solution in DMF and incubating for 5 minutes. The substrate solution was then removed and the microcapillary film air dried using a syringe to pass air repeatedly through the capillaries. Seven test strips were cut from this ONPG loaded microcapillary film and dipped into one of 7 different aqueous samples. These comprised water (1); sterile Luria-Bertani lysogeny broth (LB) media (2); a 0.1 U/μl solution of β-galactosidase enzyme (3); an overnight culture of E. coli (ATCC accession number: 25922) suspended in LB (4); an overnight culture of Salmonella typhimurium (strain SL3261) suspended in LB (5); an overnight culture of E. coli suspended in a phosphate buffer saline PBS (6); an overnight culture of S. typhimurium suspended in PBS (7). Negative control test strips consisting of PVA coated cross-linked PVA but not loaded with ONPG were dipped into the same samples (referred hereafter as no substrate). As a comparison, similar assays were also performed in 96 well-plates with ONPG substrate solution (final concentration 1 mg·ml^−1) added to the different samples in a final volume of 100 μl.

[12] = tested on: E. coli (ATCC accession number: 25922); test: ONPG assay in 96 well-plates (comparison); assay type: cell-based; settings: ONPG 1 mg/ml, overnight incubation
Description: as §4

[13] = ONPG loaded in strips, determined by dipping into beta-galactosidase solution, absorbance at 420 nm; assay type: physicochemical; settings: loaded 5 minutes with 150 mg/ml in DMF; cross-linked PVA; 1 hour with beta-galactosidase 0.2 U/μL
Description: Secondly, the concentration of loaded ONPG was determined inside the capillary film by dipping an FEP microcapillary film coated with cross-linked PVA, and loaded for 5 minutes with 150 mg/ml ONPG dissolved in DMF, into aqueous solutions of beta-galactosidase enzyme (at 0.2 U/μL). The solution was drawn up into test strips, and incubated for 1 hour to allow complete enzymatic conversion of the loaded ONPG. Subsequently, solution was removed from MCF test strips using a syringe and absorbance read using a microplate reader at 420 nm, and absorbance compared to a calibration curve of known concentrations of enzymatically converted ONPG.

E. coli = test: Sugar fermentation in sugar loaded test strips with Phenol Red Broth; assay type: cell-based; settings: sugar loaded from 1 g/L solution; 1 h at 37 degrees C; yellow = reduction in pH
Description: (§5) The ability of bacteria to ferment specific sugars is also frequently used to distinguish similar species of bacteria. For example, E. coli are able to ferment lactose and glucose and produce acid when they are incubated in the presence of either of these sugars.
(§6) A 10 bore FEP microcapillary film was internally coated with cross-linked PVA. Test microcapillary film was prepared by first loading the capillaries with either glucose or lactose by filling the capillaries with a 1 g/L solution in water and incubating for 5 minutes. The sugar solutions were then removed and the microcapillary film air dried using a syringe to pass air repeatedly through the capillaries. Three test strips were cut from each of the glucose or lactose loaded microcapillary film and dipped into one of 3 different aqueous samples. The first sample was a control sample that contained no bacteria. The second sample contained a suspension of E. coli. The third sample contained a suspension of Salmonella typhimurium. All three aqueous samples also contained Phenol Red Broth (Casein peptone 1 g/L; NaCl 0.5 g/L; Phenol Red 1 g/L). The samples all started out with a pH of 7 and were bright red in colour. When dipped, each aqueous sample was rapidly drawn up into the test strips, and the microcapillaries were clearly bright red in colour due to the Phenol Red indicator dye in the sample. […]

Salmonella typhimurium = test: as above; assay type: cell-based; settings: sugar loaded from 1 g/L solution; 1 h at 37 degrees C; yellow = reduction in pH
Description: as §5, §6

SMILES: O=[N+]([O-])c1ccc(OP(=O)(O)O)cc1 [4-Nitrophenyl phosphate]
- colour, enzymatic assays [1]: Y

SMILES: O=[N+]([O-])c1ccc(O[C@@H]2O[C@H](CO)[C@H](O)[C@H](O)[C@H]2O)cc1 [4-Nitrophenyl β-D-galacto-pyranoside]
- colour, enzymatic assays [2]: Y

SMILES: O=C(O)[C@H]1O[C@@H](Oc2ccc([N+](=O)[O-])cc2)[C@H](O)[C@@H](O)[C@@H]1O [4-Nitrophenyl β-D-glucuronide]
- colour, enzymatic assays [1]: Y
- colour, enzymatic assays [3]: Y

SMILES: N=C(N)NCCC[C@H](N)C(=O)O [Arginine]
- colour, fermentation assays [4]: O/P

SMILES: OC[C@H]1O[C@H](O[C@H]2[C@H](O)[C@@H](O)[C@H](O)O[C@@H]2CO)[C@H](O)[C@@H](O)[C@@H]1O [Maltose]
- colour, fermentation assays [4]: Y
- colour, fermentation assays [5]: Y
- colour, fermentation assays [6]: Y

SMILES: OC[C@@H](O)[C@@H](O)[C@H](O)[C@H](O)CO [Mannitol]
- colour, fermentation assays [4]: Y
- colour, fermentation assays [5]: Y

SMILES: CC(=O)N[C@H]1C(O)O[C@H](CO)[C@@H](O)[C@@H]1O (stereo partly drawn) [N-Acetyl Glucosamine]
- colour, fermentation assays [4]: Y

SMILES: O=[N+]([O-])c1ccccc1O[C@@H]1O[C@H](CO)[C@H](O)[C@H](O)[C@H]1O [ONPG, ortho-nitrophenyl-β-galactoside]
- ONPG released ([7]; HPMC coated test strips): 21.5 mg/mL
- ONPG released ([7]; cross-linked PVA coated test strips): 7.8 mg/mL
- ONPG released ([7]; gelatine coated test strips): 7.2 mg/mL
- colour of ONPG-loaded test strips [8]: no yellow colour was observed
- colour of ONPG-loaded test strips [9]: a yellow colour was observed
- Released Concentration ([10]; Loading concentration 0.5 mg/ml In Water): 0.07 mg/mL
- Released Concentration ([10]; Loading concentration 1.0 mg/ml In Water): 0.01 mg/mL
- Released Concentration ([10]; Loading concentration 5.0 mg/ml In Water): 0.06 mg/mL
- Released Concentration ([10]; Loading concentration 150.0 mg/ml In DMF): 4.67 mg/mL
- colour of wells [11]: E. coli but not S. typhimurium suspensions turned yellow
- colour of wells [12]: turned yellow
- average concentration loaded within test strips [13]: 3.4 mg/mL

SMILES: OC[C@H]1O[C@@](CO)(O[C@H]2O[C@H](CO)[C@@H](O)[C@H](O)[C@H]2O)[C@@H](O)[C@@H]1O [Sucrose]
- colour, fermentation assays [4]: Y
- colour, fermentation assays [5]: Y
- colour, fermentation assays [6]: Y

SMILES: OC[C@H]1O[C@H](O[C@H]2O[C@H](CO)[C@@H](O)[C@H](O)[C@H]2O)[C@H](O)[C@@H](O)[C@@H]1O [Trehalose]
- colour, fermentation assays [4]: Y
- colour, fermentation assays [5]: Y

SMILES: OC[C@H]1O[C@@H](O[C@H]2[C@H](O)[C@@H](O)C(O)O[C@@H]2CO)[C@H](O)[C@@H](O)[C@H]1O (stereo partly drawn) [lactose]
- colour of sugar loaded test strips (Phenol Red) (E. coli): turned yellow
- colour of sugar loaded test strips (Phenol Red) (Salmonella typhimurium): remained bright red
